Results as given in publication PMC3753068 (Small (Weinheim an der Bergstrasse, Germany), 2012).
Where a SMILES comes first, the peptide text is derived from it. The star is where a group is joined. X1 = O=C(CCCCCCCCCCS)NCCCOCCOCCOCCCN*

Test: Stability of peptides in human serum
Format: in vitro ADME

half-life: 17.5 min
SMILES: CC(=O)N[C@@H](CC(=O)O)C(=O)N[C@@H](CC(C)C)C(=O)N[C@@H](Cc1c[nH]c2ccccc12)C(=O)N[C@@H](CCCCN)C(=O)N[C@@H](CC(C)C)C(=O)NCCCOCCOCCOCCCNC(=O)CCCCCCCCCCS [Compound 1] (Ac-DLWKL-X1; C-terminus assumed)
